Results: US11666533B2, “Emulsion formulations of multikinase inhibitors” (Cloudbreak Therapeutics, LLC, priority 2018, dated 2023)
≈ marks a conversion by molar mass, not a printed value.

Legend:
[1] = Solubilizer screen for nintedanib (Example 3); type: physicochemical; conditions: for pH: pH of filtrate
Procedure: Tare 1.5 mL Eppendorf tube 2. […] Add solubilizer and record weight 4. Add water pH 5 (except F3 & F4) and record weight 5. Beadbeater mix for 120 seconds […] Place on rotating mixer for overnight at ambient temperature 7. Filter through 0.2 μm SPIN-X centrifuge filter 8. Measure pH of filtrate 9. Assay filtrate using CBT-001 standard solution

[2] = Solubility of nintedanib in a representative emulsion system (F70); type: physicochemical; conditions: aqueous with cosolvent or surfactant or cyclodextrin; emulsion system: castor oil 1, polysorbate 80 1, polyoxyl-35 castor oil 2, water 95, none in Table 6
Text: Various emulsion systems were identified for investigation based on the solubilizer results.

COC(=O)c1ccc2c(c1)NC(=O)/C2=C(\Nc1ccc(N(C)C(=O)CN2CCN(C)CC2)cc1)c1ccccc1 [nintedanib]
pH ([1]; solubilizer BZA): 5.6 | pH ([1]; solubilizer BZK): 5.6 | pH ([1]; solubilizer EtOH): 6.1 | pH ([1]; solubilizer PEG 400): 5.6 | pH ([1]; solubilizer PEG 8000): 6.0 | pH ([1]; solubilizer PG): 6.0 | pH ([1]; solubilizer PLXMR 188): 6.5 | pH ([1]; solubilizer PLXMR 407): 6.3 | pH ([1]; solubilizer polysorbate 20): 6.6 | pH ([1]; solubilizer polysorbate 80): 6.7 | Nintedanib solubility ([1]; solubilizer BZA (1% benzyl alcohol in water, F-1)): 0.01 mg/g | Nintedanib solubility ([1]; solubilizer BZK (1% in water, F-5)): 0.20 mg/g | Nintedanib solubility ([1]; solubilizer Castor oil (99.5%, F-3)): 0.37 mg/g | Nintedanib solubility ([1]; solubilizer EtOH (1% ethanol in water, F-2)): 0.01 mg/g | Nintedanib solubility ([1]; solubilizer Mineral oil (99.5%, F-4)): 0.00 mg/g | Nintedanib solubility ([1]; solubilizer PEG 400 (5% in water, F-10)): 0.17 mg/g | Nintedanib solubility ([1]; solubilizer PEG 8000 (2% in water, F-11)): 0.01 mg/g | Nintedanib solubility ([1]; solubilizer PG (1% propylene glycol in water, F-12)): 0.01 mg/g | Nintedanib solubility ([1]; solubilizer PLXMR 188 (1% Poloxamer 188 in water, F-8)): 0.01 mg/g | Nintedanib solubility ([1]; solubilizer PLXMR 407 (1% Poloxamer 407 in water, F-9)): 0.01 mg/g | Nintedanib solubility ([1]; solubilizer polysorbate 20 (1% in water, F-6)): 0.06 mg/g | Nintedanib solubility ([1]; solubilizer polysorbate 80 (1% in water, F-7)): 0.25 mg/g | solubility [2]: 3000 to 5000 µg/mL (≈ 5.56 to 9.27 mM)
